In patent publication US12692264B2, “Pyrimidine or pyridine derivative, preparation method therefor, and application thereof in pharmacy” (ABBISKO THERAPEUTICS CO., LTD., priority 2021, dated 2026):

Columns and labels:
Assay type in all cases: cell-based
[1] = molecular target: Ba/F3 EGFR-V769_D770insASV (Homo sapiens, UniProt P00533, DUP767-769, cells depend on it); assay: Cell proliferation study (CellTiter-Glo, 72 hrs), Ba/F3 EGFR-V769_D770insASV; details: CTG, * = average of multiple measurements, read-out: Ba/F3 EGFR-V769_D770insASV IC50
How it was run: (§1)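 Cells were seeded overnight, then exposed for 72 hrs at 37 °C, 5% CO2 to 9 concentrations in 3.16-fold steps, 0.1% DMSO final, triplicate wells. Viability was read by CellTiter-Glo luminescence, with a T0 plate read at dosing. IC50 came from nonlinear sigmoidal dose-response fits.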

[2] = molecular target: Ba/F3 EGFR-D770-N771ins_SVD (Homo sapiens, UniProt P00533, DUP768-770, cells depend on it); assay: Cell proliferation study (CellTiter-Glo, 72 hrs), Ba/F3 EGFR-D770-N771ins_SVD; details: CTG, * = average of multiple measurements, read-out: Ba/F3 EGFR-D770-N771ins_SVD IC50
How it was run: as §1

[3] = tested on: A431 (EGFR-WT); assay: Cell proliferation study (CellTiter-Glo, 72 hrs), A431; details: Homo sapiens, A-431, A431 cells, CTG, * = average of multiple measurements
How it was run: as §1

Sequence of Ba/F3 EGFR-V769_D770insASV (P00533 with tags, fused parts or gaps DUP767-769): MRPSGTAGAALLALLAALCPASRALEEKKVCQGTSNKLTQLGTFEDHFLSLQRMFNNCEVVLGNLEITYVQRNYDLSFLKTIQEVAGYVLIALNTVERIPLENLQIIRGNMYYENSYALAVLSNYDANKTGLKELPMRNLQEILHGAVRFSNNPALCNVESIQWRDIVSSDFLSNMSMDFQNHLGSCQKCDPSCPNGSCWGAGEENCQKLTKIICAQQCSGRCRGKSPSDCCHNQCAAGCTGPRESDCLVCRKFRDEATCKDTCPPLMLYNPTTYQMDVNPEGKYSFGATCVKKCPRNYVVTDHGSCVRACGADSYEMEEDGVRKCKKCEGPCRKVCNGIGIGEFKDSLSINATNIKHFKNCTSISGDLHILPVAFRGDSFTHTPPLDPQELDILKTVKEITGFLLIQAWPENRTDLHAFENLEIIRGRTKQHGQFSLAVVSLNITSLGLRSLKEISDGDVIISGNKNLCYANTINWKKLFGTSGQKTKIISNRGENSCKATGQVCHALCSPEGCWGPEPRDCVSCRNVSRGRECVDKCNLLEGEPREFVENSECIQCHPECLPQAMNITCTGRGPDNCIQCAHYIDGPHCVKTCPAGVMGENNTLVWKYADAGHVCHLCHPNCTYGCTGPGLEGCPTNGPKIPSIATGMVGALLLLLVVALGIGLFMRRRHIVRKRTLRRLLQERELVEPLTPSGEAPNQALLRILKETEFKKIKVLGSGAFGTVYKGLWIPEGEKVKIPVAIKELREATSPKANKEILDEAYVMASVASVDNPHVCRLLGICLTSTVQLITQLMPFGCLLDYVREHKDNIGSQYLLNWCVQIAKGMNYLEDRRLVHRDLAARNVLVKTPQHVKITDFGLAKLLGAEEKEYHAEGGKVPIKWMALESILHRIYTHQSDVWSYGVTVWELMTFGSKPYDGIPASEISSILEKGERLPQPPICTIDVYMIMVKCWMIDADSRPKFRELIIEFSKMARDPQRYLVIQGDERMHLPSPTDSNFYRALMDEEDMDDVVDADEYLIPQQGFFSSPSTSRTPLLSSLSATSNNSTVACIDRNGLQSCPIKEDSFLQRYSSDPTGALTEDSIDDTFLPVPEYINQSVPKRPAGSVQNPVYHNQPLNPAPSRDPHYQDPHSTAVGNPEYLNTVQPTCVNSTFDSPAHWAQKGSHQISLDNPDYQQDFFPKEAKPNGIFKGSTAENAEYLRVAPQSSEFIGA
Sequence of Ba/F3 EGFR-D770-N771ins_SVD (P00533 with tags, fused parts or gaps DUP768-770): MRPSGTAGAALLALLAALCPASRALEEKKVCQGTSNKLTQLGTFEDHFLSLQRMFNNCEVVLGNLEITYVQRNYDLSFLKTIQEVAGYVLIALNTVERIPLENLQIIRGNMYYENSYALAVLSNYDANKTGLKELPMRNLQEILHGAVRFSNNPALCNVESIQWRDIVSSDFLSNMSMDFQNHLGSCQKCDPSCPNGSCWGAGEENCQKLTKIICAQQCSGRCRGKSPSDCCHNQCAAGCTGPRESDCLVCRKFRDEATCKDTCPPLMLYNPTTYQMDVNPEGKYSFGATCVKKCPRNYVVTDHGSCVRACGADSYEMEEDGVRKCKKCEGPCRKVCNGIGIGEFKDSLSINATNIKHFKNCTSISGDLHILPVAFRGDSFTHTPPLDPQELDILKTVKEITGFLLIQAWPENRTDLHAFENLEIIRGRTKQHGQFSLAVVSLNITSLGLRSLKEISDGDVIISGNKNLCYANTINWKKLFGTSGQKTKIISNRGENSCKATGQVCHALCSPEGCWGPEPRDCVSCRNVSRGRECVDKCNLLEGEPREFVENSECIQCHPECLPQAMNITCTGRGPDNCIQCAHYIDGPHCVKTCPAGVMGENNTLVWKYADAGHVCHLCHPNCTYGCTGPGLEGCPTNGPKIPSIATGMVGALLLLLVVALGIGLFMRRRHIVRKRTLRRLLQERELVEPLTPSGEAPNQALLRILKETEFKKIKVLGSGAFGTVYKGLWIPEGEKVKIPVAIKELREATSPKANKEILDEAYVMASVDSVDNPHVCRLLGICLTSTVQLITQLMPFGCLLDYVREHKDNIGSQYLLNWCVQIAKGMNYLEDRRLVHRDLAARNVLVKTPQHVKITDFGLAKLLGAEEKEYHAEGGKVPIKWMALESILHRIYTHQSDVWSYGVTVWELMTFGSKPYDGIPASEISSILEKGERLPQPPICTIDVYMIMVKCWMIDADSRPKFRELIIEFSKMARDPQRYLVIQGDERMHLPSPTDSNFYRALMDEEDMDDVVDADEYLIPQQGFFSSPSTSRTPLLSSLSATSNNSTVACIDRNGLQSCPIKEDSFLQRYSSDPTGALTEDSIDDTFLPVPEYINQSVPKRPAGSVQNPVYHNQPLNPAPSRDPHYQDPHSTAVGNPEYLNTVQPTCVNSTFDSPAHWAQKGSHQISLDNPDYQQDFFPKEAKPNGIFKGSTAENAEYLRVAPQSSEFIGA

Row | Structure (SMILES) | GI50 [1] | GI50 [2] | IC50 [3]
1 | [2H]C1([2H])N(c2nc(Nc3cc(NC(=O)C=C)c(N(C)C[C@@H]4CCCN4C)cc3OC)ncc2C(=O)OC(C)C)c2ccc(C)nc2C1(C)C [Example 52, isopropyl (S)-2-((5-acrylamido-2-methoxy-4-(methyl((1-methylpyrrolidin-2-yl)methyl)amino)phenyl)amino)-4-(3,3,5-trimethyl-2,3-dihydro-1H-pyrrolo[3,2-b]pyridin-1-yl-2,2-d2)pyrimidine-5-carboxylate] | 0.0619 µM | 0.0241 µM | 0.185 µM
2 | C=CC(=O)Nc1cc(Nc2ncc(C(=O)OC(C)C)c(N3CC(C)(C)c4nc(C)ccc43)n2)c(O)cc1N(C)CCN(C)C [Example 54, isopropyl 2-((5-acrylamido-4-((2-(dimethylami-no)ethyl)(methyl)amino)-2-hydroxy-phenyl)amino)-4-(3,3,5-trimethyl-2,3-dihydro-1H-pyrrolo[3,2-b]pyridin-1-yl)pyrimidine-5-carboxylate] | 0.0819 µM | 0.077 µM | 1.15 µM
3 | C=CC(=O)Nc1cc(Nc2ncc(C(=O)OC(C)C)c(N3CC(C)(C)c4nc(C)ccc43)n2)c(OC)cc1NCCN(C)C [Example 55, isopropyl 2-((5-acrylamido-4-((2-(dimethylami-no)ethyl)amino)-2-methoxy-phenyl)amino)-4-(3,3,5-trimethyl-2,3-dihydro-1H-pyrrolo[3,2-b]pyridin-1-yl)pyrimidine-5-carboxylate] | 0.052 µM | 0.0228 µM | 0.432 µM
4 | C=CC(=O)Nc1cc(Nc2ncc(C(=O)OC(C)C)c(N3CC(C)(C)c4nc(C)ccc43)n2)c(OC)cc1N(C)CCN(CC)CC [Example 56, isopropyl 2-((5-acrylamido-4-((2-(diethylami-no)ethyl)(methyl)amino)-2-methoxy-phenyl)amino)-4-(3,3,5-trimethyl-2,3-dihydro-1H-pyrrolo[3,2-b]pyridin-1-yl)pyrimidine-5-carboxylate] | 0.0911 µM | 0.0335 µM | 0.301 µM
5 | C=CC(=O)Nc1cc(Nc2ncc(C(=O)OC(C)C)c(N3CC(C)(C)c4nc(Cl)ccc43)n2)c(OC)cc1N(C)CCN(C)C [Example 57, isopropyl 2-((5-acrylamido-4-((2-(dimethylami-no)ethyl)(methyl)amino)-2-methoxy-phenyl)amino)-4-(5-chloro-3,3-dimethyl-2,3-dihydro-1H-pyrrolo[3,2-b]pyridin-1-yl)pyrimidine-5-carboxylate] | 0.0624 µM | 0.0233 µM | 0.988 µM
6 | C=CC(=O)Nc1cc(Nc2ncc(C(=O)OC(C)C)c(N3CC(C)(C)c4nc(C)ccc43)n2)c(OC)cc1N1C[C@H]2CN(C)C[C@H]2C1 [Example 58, isopropyl 2-((5-acrylamido-2-methoxy-4-((3aR,6aS)-5-methylhexahydro-pyrrolo[3,4-c]pyrrol-2(1H)-yl)phenyl)amino)-4-(3,3,5-trimethyl-2,3-dihydro-1H-pyrrolo[3,2-b]pyridin-1-yl)pyrimidine-5-carboxylate] | 0.0381 µM | 0.0287 µM | 1.28 µM
7 | C=CC(=O)Nc1cc(Nc2ncc(C(=O)OC(C)C)c(N3CC(C)(C)c4nc(C)ccc43)n2)c(OC)nc1N1C[C@@H](F)C[C@@H]1CN(C)C [Example 59, isopropyl 2-((5-acrylamido-6-((2R,4S)-2-((dimethylamino)methyl)-4-fluoro-pyrrolidin-1-yl)-2-methoxypyridin-3-yl)amino)-4-(3,3,5-trimethyl-2,3-dihydro-1H-pyrrolo[3,2-b]pyridin-1-yl)pyrimidine-5-carboxylate] | 0.0184 µM | 0.0184 µM | 0.15 µM
8 | C=CC(=O)Nc1cc(Nc2ncc(C(=O)OC(C)C)c(N3CC(C)(C)c4nc(C)ccc43)n2)c(OC)cc1N1CCC[C@H](N(C)C)C1 [Example 60, isopropyl (S)-2-((5-acrylamido-4-(3-(dimethyl-amino)piperidin-1-yl)-2-methoxy-phenyl)amino)-4-(3,3,5-trimethyl-2,3-dihydro-1H-pyrrolo[3,2-b]pyridin-1-yl)pyrimidine-5-carboxylate] | 0.0379 µM | 0.0319 µM | 0.761 µM
9 | C=CC(=O)Nc1cc(Nc2ncc(C(=O)OC(C)C)c(N3CC(C)(C)c4nc(C)ccc43)n2)c(OC)cc1N(C)C[C@H]1CCCN1C [Example 62, isopropyl (R)-2-((5-acrylamido-2-methoxy-4-(methyl((1-methylpyrrolidin-2-yl)methyl)amino)phenyl)amino)-4-(3,3,5-trimethyl-2,3-dihydro-1H-pyrrolo[3,2-b]pyridin-1-yl)pyrimidine-5-carboxylate] | 0.016 µM | 0.0123 µM | 0.12 µM
10 | C=CC(=O)Nc1cc(Nc2ncc(C(=O)OC(C)C)c(N3CC(C)(C)c4nc(C)ccc43)n2)c(OC)cc1N1C[C@@H](F)C[C@@H]1CN(C)C [Example 63, isopropyl 2-((5-acrylamido-4-((2R,4S)-2-((dimethylamino)methyl)-4-fluoro-pyrrolidin-1-yl)-2-methoxy-phenyl)amino)-4-(3,3,5-trimethyl-2,3-dihydro-1H-pyrrolo[3,2-b]pyridin-1-yl)pyrimidine-5-carboxylate] | 0.0183 µM | 0.0107 µM | 0.11 µM
11 | C=CC(=O)Nc1cc(Nc2ncc(C(=O)OC(C)C)c(N3CC4(CC4)c4nc(C)ccc43)n2)c(OC)cc1N1C[C@@H](F)C[C@@H]1CN(C)C [Example 64, isopropyl 2-((5-acrylamido-4-((2R,4S)-2-((di-methylamino)methyl)-4-fluoro-pyrrolidin-1-yl)-2-methoxy-phenyl)amino)-4-(5′-methyl-spiro(cyclopropane-1,3′-pyrrolo[3,2-b]pyridin)-1′(2′H)-yl)pyrimidine-5-carboxylate] | 0.0123 µM | 0.0088 µM | 0.0397 µM
12 | C=CC(=O)Nc1cc(Nc2ncc(C(=O)OC(C)C)c(N3CC4(CC4)c4nc(C)ccc43)n2)c(OC)cc1NCCN(C)C [Example 65, isopropyl 2-((5-acrylamido-4-((2-(dimethylami-no)ethyl)amino)-2-methoxy-phenyl)amino)-4-(5′-methylspiro(cyclo-propane-1,3′-pyrrolo[3,2-b]pyridin)-1′(2′H)-yl)pyrimidine-5-carboxylate] | 0.0344 µM | 0.039 µM | 0.282 µM
13 | C=CC(=O)Nc1cc(Nc2ncc(C(=O)OC(C)C)c(N3CC(C)(C)c4nc(C)ccc43)n2)c(OC)cc1N(C)CCN1CCC1 [Example 67, isopropyl 2-((5-acrylamido-4-((2-(azetidin-1-yl)ethyl)(methyl)amino)-2-methoxy-phenyl)amino)-4-(3,3,5-trimethyl-2,3-dihydro-1H-pyrrolo[3,2-b]pyridin-1-yl)pyrimidine-5-carboxylate] | 0.0371 µM | 0.0239 µM | 0.515 µM
14 | [2H]C([2H])([2H])N(CCN(C)C)c1cc(OC)c(Nc2ncc(C(=O)OC(C)C)c(N3c4ccc(C)nc4C(C)(C)C3([2H])[2H])n2)cc1NC(=O)C=C [Example 71, isopropyl 2-((5-acrylamido-4-((2-(dimethylami-no)ethyl)(methyl-d3)amino)-2-methoxy-phenyl)amino)-4-(3,3,5-trimethyl-2,3-dihydro-1H-pyrrolo[3,2-b]pyridin-1-yl-2,2-d2)pyrimidine-5-carboxylate] | 0.0304 µM | 0.0148 µM | 0.0655 µM
15 | [2H]C([2H])([2H])Oc1cc(N(CCN(C([2H])([2H])[2H])C([2H])([2H])[2H])C([2H])([2H])[2H])c(NC(=O)C=C)cc1Nc1ncc(C(=O)OC(C)C)c(N2CC(C)(C)c3nc(C)ccc32)n1 [Example 72, isopropyl 2-((5-acrylamido-4-((2-(bis(methyl-d3)amino)ethyl)(methyl-d3)amino)-2-(methoxy-d3)phenyl)amino)-4-(3,3,5-trimethyl-2,3-dihydro-1H-pyrrolo[3,2-b]pyridin-1-yl)pyrimidine-5-carboxylate] | 0.0353 µM | 0.0248 µM | 0.12 µM
16 | [2H]C([2H])([2H])C1(C([2H])([2H])[2H])CN(c2nc(Nc3cc(NC(=O)C=C)c(N(C)CCN(C)C)cc3OC)ncc2C(=O)OC(C)C)c2ccc(C)nc21 [Example 73, isopropyl 2-((5-acrylamido-4-((2-(dimethylami-no)ethyl)(methyl)amino)-2-methoxy-phenyl)amino)-4-(5-methyl-3,3-bis(methyl-d3)-2,3-dihydro-1H-pyrrolo[3,2-b]pyridin-1-yl)pyrimidine-5-carboxylate] | 0.0348 µM | 0.0123 µM | 0.09 µM
17 | C=CC(=O)Nc1cc(Nc2ncc(C(=O)OC(C)C)c(N3CC(C)(C)c4nc(C#CC)ccc43)n2)c(OC)cc1N1CC[C@@H](N(C)C)C1 [Example 74, isopropyl (R)-2-((5-acrylamido-4-(3-(dimethyl-amino)pyrrolidin-1-yl)-2-methoxy-phenyl)amino)-4-(3,3-dimethyl-5-(prop-1-yn-1-yl)-2,3-dihydro-1H-pyrrolo[3,2-b]pyridin-1-yl)pyrimidine-5-carboxylate] | 0.0436 µM | 0.0155 µM | 0.0993 µM
18 | C=CC(=O)Nc1cc(Nc2ncc(C(=O)OC(C)C)c(N3CC(C)(C)c4nc(C#CC)ccc43)n2)c(OC)cc1N1CC(N(C)C)C1 [Example 76, isopropyl 2-((5-acrylamido-4-(3-(dimethylami-no)azetidin-1-yl)-2-methoxyphenyl)ami-no)-4-(3,3-dimethyl-5-(prop-1-yn-1-yl)-2,3-dihydro-1H-pyrrolo[3,2-b]pyridin-1-yl)pyrimidine-5-carboxylate] | 0.0939 µM | 0.0309 µM | 1.26 µM
